Measured values published in paper PMC4771075 (Journal of medicinal chemistry, 2015).
Where “and” joins values, the source holds several entries; their conditions need not be identical. Equal entries are not always repeated. Where two headings read alike, the source gives them in different places. Square brackets hold non-standard residues; d marks the D form. * marks the point of attachment. Dap = NC[C@H](N)C(=O)O; Bn = c1ccc(C*)cc1

Columns and labels:
mu opioid receptor (MOR) = mu opioid receptor (MOR) (Rattus norvegicus, UniProt P33535); experiment: Radioligand binding assay, MOR
KOR [1] = molecular target: T1, KOR (Rattus norvegicus, UniProt P34975); experiment: Agonist stimulated [^35S]GTPγS binding assay, agonist efficacy; assay type: biochemical
[2] = molecular target: kappa opioid receptor (KOR) (Rattus norvegicus, UniProt P34975); experiment: biochemical; assay type: binding
KOR [3] = molecular target: T1, KOR; details: after a single dose; cited from earlier work
KOR [4] = molecular target: T1, KOR; experiment: Schild analysis against Dyn A; assay type: biochemical
KOR [5] = molecular target: T1, KOR; details: read-out: KOR Ki found previously; cited from earlier work
[6] = tested on: stress-induced reinstatement of cocaine seeking behavior; details: mice, s.c. administration; cited from earlier work

Chain of mu opioid receptor (MOR) (P33535 whole entry): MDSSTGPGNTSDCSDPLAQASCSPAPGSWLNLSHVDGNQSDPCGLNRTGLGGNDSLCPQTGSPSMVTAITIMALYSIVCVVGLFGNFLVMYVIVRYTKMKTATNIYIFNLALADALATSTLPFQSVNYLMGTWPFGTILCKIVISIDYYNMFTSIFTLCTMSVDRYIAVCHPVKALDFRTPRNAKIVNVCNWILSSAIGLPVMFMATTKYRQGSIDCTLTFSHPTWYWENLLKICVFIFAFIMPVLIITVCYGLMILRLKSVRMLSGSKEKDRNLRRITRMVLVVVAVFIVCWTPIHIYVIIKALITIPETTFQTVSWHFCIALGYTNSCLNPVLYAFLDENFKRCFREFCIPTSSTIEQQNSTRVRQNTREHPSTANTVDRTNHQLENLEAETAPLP
T1 sequence (P34975 whole entry): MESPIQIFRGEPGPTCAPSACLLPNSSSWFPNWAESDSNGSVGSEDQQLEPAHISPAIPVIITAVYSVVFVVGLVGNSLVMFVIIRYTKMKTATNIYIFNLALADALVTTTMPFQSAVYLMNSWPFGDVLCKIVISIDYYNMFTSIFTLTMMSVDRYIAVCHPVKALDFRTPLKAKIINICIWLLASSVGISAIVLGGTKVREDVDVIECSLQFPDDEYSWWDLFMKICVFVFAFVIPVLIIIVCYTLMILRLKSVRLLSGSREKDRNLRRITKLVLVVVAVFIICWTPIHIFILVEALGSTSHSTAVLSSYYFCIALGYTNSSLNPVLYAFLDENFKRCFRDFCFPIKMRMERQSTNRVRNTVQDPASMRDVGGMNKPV
Chain of kappa opioid receptor (KOR) (P34975 whole entry): as above

CC(=O)NC[C@H](NC(=O)[C@H](CCCNC(=N)N)NC(=O)[C@H](CCCNC(=N)N)NC(=O)[C@H](CC(C)C)NC(=O)[C@H](Cc1ccccc1)NC(=O)CNC(=O)CNC(=O)[C@H](Cc1ccc(O)cc1)NCc1ccccc1)C(=O)N[C@@H](CCCNC(=N)N)C(=O)N1CCC[C@H]1C(=O)N[C@@H](CCCCN)C(N)=O [Peptide 3, NBn-Tyr^1-Gly-Gly-Phe-Leu-Arg-Arg-Dap(Ac)^8-Arg-Pro-Lys-NH2]
Ki (mu opioid receptor (MOR)): 157 ± 25 nM
fold higher MOR affinity than zyklophin (mu opioid receptor (MOR)): 28 fold
EC50 (KOR [1]): 39.5 ± 17.4 nM
KOR efficacy in the GTPγS assay (KOR [1]; screened at 10 µM, compared to the full agonist Dyn A(1-13)NH2): 26%
Ki ratio, Ki (MOR)/Ki (KOR) [2]: 5
Relative KOR affinity [2]: 3.3
fold higher KOR affinity compared to zyklophin [2]: 3 fold
Ki ([2]; KOR Ki (nM ± SEM)): 28 nM and 28.6 nM

CC[C@H](C)[C@H](NC(=O)[C@H](CCCNC(=N)N)NC(=O)[C@H](CCCNC(=N)N)NC(=O)[C@@H](CC(N)=O)NC(=O)[C@H](Cc1ccccc1)NC(=O)CNC(=O)CNC(=O)[C@H](Cc1ccc(O)cc1)NCc1ccccc1)C(=O)N[C@@H](CCCNC(=N)N)C(=O)N1CCC[C@H]1C(=O)N[C@@H](CCCCN)C(N)=O [Peptide 2, NBn-Tyr^1-Gly-Gly-Phe-DAsn^5-Arg-Arg-Ile-Arg-Pro-Lys-NH2]
fold lower KOR affinity compared to zyklophin [2]: 4 fold

Oc1ccc2c3c1O[C@H]1c4[nH]c5c(c4C[C@@]4(O)[C@@H](C2)N(CC2CC2)CC[C@]314)C[C@@]1(O)[C@H]2Cc3ccc(O)c4c3[C@@]1(CCN2CC1CC1)[C@H]5O4 [norBNI, nor-binaltorphimine, reference compound]
duration of KOR antagonist activity (KOR [3]): lasting weeks after a single dose
Kb (KOR [4]): 0.074 nM

[N-benzyl-Tyr^1,D-Asn^5,Dap(Ac)^8]Dyn A(1-11)NH2 (Bn-YGGF[dN]RR[Dap](Ac)RPK-NH2; not fully specified (residue 1))
Ki (KOR [5]): 66.9 nM

CC[C@H](C)[C@H](NC(=O)[C@H](CCCN=C(N)N)NC(=O)[C@H](CCCN=C(N)N)NC(=O)[C@H](CC(C)C)NC(=O)[C@H](Cc1ccccc1)NC(=O)CNC(=O)CNC(=O)[C@@H](N)Cc1ccc(O)cc1)C(=O)N[C@@H](CCCN=C(N)N)C(=O)N1CCC[C@H]1C(=O)N[C@@H](CCCCN)C(N)=O [Dyn A(1-11)NH2, reference compound]
Ki ([2]; KOR Ki (nM ± SEM)): 2.6 ± 0.3 nM

N=C(N)NCCC[C@@H]1NC(=O)[C@H](CCCNC(=N)N)NC(=O)[C@H](NC(=O)[C@H](Cc2ccccc2)NC(=O)CNC(=O)CNC(=O)[C@H](Cc2ccc(O)cc2)NCc2ccccc2)CC(=O)NC[C@@H](C(=O)N[C@@H](CCCNC(=N)N)C(=O)N2CCC[C@H]2C(=O)N[C@@H](CCCCN)C(N)=O)NC1=O [Peptide 1, [N-benzyl-Tyr^1-cyclo(D-Asp^5,Dap^8)]dynorphin A(1-11)NH2]
stress-induced reinstatement of cocaine seeking behavior [6]: suppressed
Ki (mu opioid receptor (MOR)): 4380 ± 560 nM
Ki ([2]; KOR Ki 95% confidence interval, n = 10): 30 to 160 nM
Ki ([2]; KOR Ki (nM ± SEM)): 95.2 ± 28.8 nM
Relative KOR affinity ([2]; compared to zyklophin (1.0)): 1.0

CC(C)[C@@H](CN1CC[C@@](C)(c2cccc(O)c2)[C@@H](C)C1)NC(=O)[C@H]1Cc2ccc(O)cc2CN1 [JDTic, (3R)-7-hydroxy-N-[(2S)-1-[(3R,4R)-4-(3-hydroxyphenyl)-3,4-dimethylpiperidin-1-yl]-3-methylbutan-2-yl]-1,2,3,4-tetrahydroisoquinoline-3-carboxamide]
duration of KOR antagonist activity (KOR [3]): lasting weeks after a single dose
